From patent US20170368082A1, “FORMULATIONS OF BRINCIDOFOVIR” (priority 2016, published 2017)
Values joined by “and” are separate entries in the source; they are usually repeats but may differ in a detail not shown here. Equal entries are not always repeated.

Experiment: Phase 2 toxicokinetics of brincidofovir and cidofovir in plasma
Type: in vivo, Sprague-Dawley CD rats
Parameters: Imputed Concentration, Mean: unit: ng/mL
Details: plasma; for C (Concentration), individual animals: 15 mg/kg; for Imputed Concentration, individual animals / Imputed Concentration, Mean: BLQ imputed as zero
Description: Plasma samples (108) were collected 2 hours following the initiation of dosing on Day 1 and Day 7 (Group 1), or at 1, 2, 8, and 24 hours following the initiation of dosing on Day 1, and prior to administration and at 2, 8, and 24 hours following the initiation of dosing on Day 7 (Groups 2 and 3), and analyzed to determine the concentrations of brincidofovir and the metabolite, cidofovir), by LC/MS/MS.
Approximately 0.4 mL of whole blood was obtained via the tail vein from each animal at each time point. Animals were not fasted prior to blood collection. Blood was collected into tubes containing K2EDTA anticoagulant and placed on wet ice in an upright position, per facility SOP prior to processing. Plasma was separated by centrifugation (10 minutes at approximately 2000 g, at approximately 2-8° C.). Approximately 0.10 mL of plasma was transferred into a single cryotube appropriately labeled with study number, animal number, time point, date of sampling and sample type. Remaining plasma was transferred into a second cryotube and retained as a backup sample. Plasma frozen at approximately −80±10° C. within approximately 2 hours after collection of each blood sample until analysis. Animals were euthanized (CO2 inhalation) after the final blood collection.
In general, TK parameters were estimated using mean plasma concentrations of brincidofovir and cidofovir derived from the composite blood sampling design using Phoenix WinNonLin (V 6.3).
A composite blood sampling design was used such that each rat was sampled twice per sampling day. Blood was collected via tail vein from unanesthetized animals into tubes containing anticoagulant and placed on wet ice in an upright position. Animals were not fasted prior to blood collection. Plasma was separated by centrifugation (for 10 minutes at approximately 2000 g, at approximately 2-8° C.), and transferred into individually labeled cryotubes. All cryotubes containing the collected plasma samples were appropriately labeled as to study number, animal number, time point, date of sampling and sample type. All plasma samples were obtained and frozen at approximately −80° C. (±10° C.) within approximately 2 hours after collection of each blood sample until analysis.
Rat plasma bioanalysis was conducted by Pyxant Laboratories. Plasma samples were analyzed for concentrations of brincidofovir and cidofovir using a method based upon protein precipitation extraction followed by LC-MS/MS analysis; calibration ranges for brincidofovir and cidofovir were 1.00-1500 ng/mL and 5.00-750 ng/mL, respectively, (Pyxant study number 3025) for a 50 μL aliquot of rat plasma. Sample analysis for ISR was not performed as part of this non-GLP study.
For the generation of Mean Profiles, all sample concentrations that were below the limit of quantitation (BLQ) were set to 0.
All pharmacokinetic parameter estimates were completed using a Non-Compartmental Model (Model 200-202 for IV infusion administration). The AUClast and AUCinf were calculated using the linear up log down trapezoidal rule.

[1] = brincidofovir 1 mg/kg 2-h IV infusion, female rats, Day 7, 0 h
[2] = brincidofovir 1 mg/kg 2-h IV infusion, female rats, Day 7, 24 h
[3] = brincidofovir 1 mg/kg 2-h IV infusion, male rats, Day 7, 8 h
[4] = brincidofovir 1 mg/kg 2-h IV infusion, male rats, Day 7, 24 h
[5] = brincidofovir 15 mg/kg 2-h IV infusion, female rats, Day 7, 0 h
[6] = brincidofovir 15 mg/kg 2-h IV infusion, male rats, Day 7, 0 h

## CCCCCCCCCCCCCCCCOCCCOP(=O)(O)CO[C@H](CO)Cn1ccc(N)nc1=O [Brincidofovir]
Female rats, Day 7, 24 h, listed as BCV
  C (Concentration), individual animals: BLQ
Male rats, Day 7, 0 h
  C (Concentration), individual animals: BLQ
Brincidofovir 1 mg/kg 2-h IV infusion, female rats, Day 1, 1 h, listed as BCV
  Imputed Concentration, individual animals: 126 ng/mL and 177 ng/mL
Brincidofovir 1 mg/kg 2-h IV infusion, female rats, Day 1, 2 h, listed as BCV
  Imputed Concentration, individual animals: 164 ng/mL and 155 ng/mL
Brincidofovir 1 mg/kg 2-h IV infusion, female rats, Day 1, 8 h, listed as BCV
  Imputed Concentration, individual animals: 2.30 ng/mL and 1.45 ng/mL and 0.00 ng/mL
Brincidofovir 1 mg/kg 2-h IV infusion, female rats, Day 1, 24 h
  Imputed Concentration, individual animals: 0.00 ng/mL
[1]
  Imputed Concentration, Mean: 0.00 ng/mL
  Imputed Concentration, individual animals: 0.00 ng/mL
Brincidofovir 1 mg/kg 2-h IV infusion, female rats, Day 7, 2 h
  Imputed Concentration, Mean: 95.4 ng/mL
Brincidofovir 1 mg/kg 2-h IV infusion, female rats, Day 7, 2 h, listed as BCV
  Imputed Concentration, individual animals: 115 ng/mL and 82.1 ng/mL and 89.2 ng/mL
Brincidofovir 1 mg/kg 2-h IV infusion, female rats, Day 7, 8 h
  Imputed Concentration, Mean: 2.19 ng/mL
Brincidofovir 1 mg/kg 2-h IV infusion, female rats, Day 7, 8 h, listed as BCV
  Imputed Concentration, individual animals: 6.58 ng/mL and 0.00 ng/mL (2×)
[2]
  Imputed Concentration, Mean: 0.00 ng/mL
  Imputed Concentration, individual animals: 0.00 ng/mL
Brincidofovir 1 mg/kg 2-h IV infusion, male rats, Day 1, 1 h, listed as BCV
  Imputed Concentration, individual animals: 244 ng/mL and 280 ng/mL
Brincidofovir 1 mg/kg 2-h IV infusion, male rats, Day 1, 2 h, listed as BCV
  Imputed Concentration, individual animals: 283 ng/mL and 203 ng/mL
Brincidofovir 1 mg/kg 2-h IV infusion, male rats, Day 1, 8 h
  Imputed Concentration, individual animals: 0.00 ng/mL
Brincidofovir 1 mg/kg 2-h IV infusion, male rats, Day 1, 24 h
  Imputed Concentration, individual animals: 0.00 ng/mL
Brincidofovir 1 mg/kg 2-h IV infusion, male rats, Day 7, 0 h
  Imputed Concentration, individual animals: 0.00 ng/mL
Brincidofovir 1 mg/kg 2-h IV infusion, male rats, Day 7, 2 h
  Imputed Concentration, Mean: 208 ng/mL
Brincidofovir 1 mg/kg 2-h IV infusion, male rats, Day 7, 2 h, listed as BCV
  Imputed Concentration, individual animals: 255 ng/mL and 189 ng/mL and 179 ng/mL
[3]
  Imputed Concentration, Mean: 0.00 ng/mL
  Imputed Concentration, individual animals: 0.00 ng/mL
[4]
  Imputed Concentration, Mean: 0.00 ng/mL
  Imputed Concentration, individual animals: 0.00 ng/mL
Brincidofovir 15 mg/kg 2-h IV infusion, female rats, Day 1, 1 h
  Imputed Concentration, Mean: 3470
Brincidofovir 15 mg/kg 2-h IV infusion, female rats, Day 1, 1 h, listed as BCV
  Imputed Concentration, individual animals: 3030 and 3930 and 3450
Brincidofovir 15 mg/kg 2-h IV infusion, female rats, Day 1, 2 h
  Imputed Concentration, Mean: 2570
Brincidofovir 15 mg/kg 2-h IV infusion, female rats, Day 1, 2 h, listed as BCV
  Imputed Concentration, individual animals: 2460 and 1860 and 3380
Brincidofovir 15 mg/kg 2-h IV infusion, female rats, Day 1, 8 h
  Imputed Concentration, Mean: 6.53
Brincidofovir 15 mg/kg 2-h IV infusion, female rats, Day 1, 8 h, listed as BCV
  Imputed Concentration, individual animals: 5.05 and 7.97 and 6.57
Brincidofovir 15 mg/kg 2-h IV infusion, female rats, Day 1, 24 h
  Imputed Concentration, Mean: 2.02
Brincidofovir 15 mg/kg 2-h IV infusion, female rats, Day 1, 24 h, listed as BCV
  Imputed Concentration, individual animals: 2.32 and 1.25 and 2.48
[5]
  Imputed Concentration, Mean: 0.00
  Imputed Concentration, individual animals: 0.00
Brincidofovir 15 mg/kg 2-h IV infusion, female rats, Day 7, 2 h
  Imputed Concentration, Mean: 1660
Brincidofovir 15 mg/kg 2-h IV infusion, female rats, Day 7, 2 h, listed as BCV
  Imputed Concentration, individual animals: 2220 and 995 and 1750
Brincidofovir 15 mg/kg 2-h IV infusion, female rats, Day 7, 8 h, listed as BCV
  Imputed Concentration, individual animals: 5.32 and 6.27 and 4.75
Brincidofovir 15 mg/kg 2-h IV infusion, male rats, Day 1, 1 h
  Imputed Concentration, Mean: 4370
Brincidofovir 15 mg/kg 2-h IV infusion, male rats, Day 1, 1 h, listed as BCV
  Imputed Concentration, individual animals: 4020 and 4030 and 5060
Brincidofovir 15 mg/kg 2-h IV infusion, male rats, Day 1, 2 h
  Imputed Concentration, Mean: 2840
Brincidofovir 15 mg/kg 2-h IV infusion, male rats, Day 1, 2 h, listed as BCV
  Imputed Concentration, individual animals: 2510 and 2990 and 3010
Brincidofovir 15 mg/kg 2-h IV infusion, male rats, Day 1, 8 h
  Imputed Concentration, Mean: 9.59
Brincidofovir 15 mg/kg 2-h IV infusion, male rats, Day 1, 8 h, listed as BCV
  Imputed Concentration, individual animals: 10.7 and 8.23 and 9.85
Brincidofovir 15 mg/kg 2-h IV infusion, male rats, Day 1, 24 h
  Imputed Concentration, Mean: 1.22
Brincidofovir 15 mg/kg 2-h IV infusion, male rats, Day 1, 24 h, listed as BCV
  Imputed Concentration, individual animals: 1.20 and 1.10 and 1.36
[6]
  Imputed Concentration, Mean: 0.00
  Imputed Concentration, individual animals: 0.00
Brincidofovir 15 mg/kg 2-h IV infusion, male rats, Day 7, 2 h
  Imputed Concentration, Mean: 1910
Brincidofovir 15 mg/kg 2-h IV infusion, male rats, Day 7, 2 h, listed as BCV
  Imputed Concentration, individual animals: 1640 and 1940 and 2150
Brincidofovir 15 mg/kg 2-h IV infusion, male rats, Day 7, 8 h, listed as BCV
  Imputed Concentration, individual animals: 9.82 and 7.60 and 8.73
